The supplement of paper PMC10307832

Legend:
Assay in all cases: relative viability (nuclei count vs DMSO), 5 days (fraction); higher = more cells survive
[1] = compound: Nc1ccn([C@@H]2O[C@H](CO)[C@@H](O)C2(F)F)c(=O)n1 [Gemcitabine]
Summary of the method: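 Five library-drug doses, separated by factors of √10, were pinned into 1536-well plates holding lung cancer cell lines after an overnight stay at 37 °C. Cells were fixed, permeabilised and Hoechst-stained in one step after 5 days without medium change, then imaged at 4×. Viability compares treated-well with vehicle-well nuclei, counted in MetaXpress, as a median across plates. Passing plates had control CV below 25% and at least one doubling.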

[2] = compound: Nc1ccn([C@@H]2O[C@H](CO)[C@@H](O)C2(F)F)c(=O)n1 [Gemcitabine] + Cc1cc(Nc2cc(N3CCN(C)CC3)nc(Sc3ccc(NC(=O)C4CC4)cc3)n2)n[nH]1 [Tozasertib] (partner 0.1 µM)
Summary of the method: (§1)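 Medians of duplicate plates are given as relative viability. That measure is the nuclei count in treated wells divided by the count in vehicle wells. Counts were taken on 4× images of lung cancer cell lines in 1536-well plates, 5 days after pin-tool dosing the day after seeding with one drug alone or a fixed anchor-drug dose plus five library-drug doses (not always all listed) in √10 steps.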

[3] = compound: Nc1ccn([C@@H]2O[C@H](CO)[C@@H](O)C2(F)F)c(=O)n1 [Gemcitabine] + Nc1nc2[nH]cc(CCc3ccc(C(=O)N[C@@H](CCC(=O)O)C(=O)O)cc3)c2c(=O)[nH]1 [Pemetrexed] (partner 0.2 µM)
Summary of the method: as §1

[4] = compound: Nc1ccn([C@@H]2O[C@H](CO)[C@@H](O)C2(F)F)c(=O)n1 [Gemcitabine] + CC(=O)c1c(C)c2cnc(Nc3ccc(N4CCNCC4)cn3)nc2n(C2CCCC2)c1=O [Palbociclib] (partner 0.5 µM)
Summary of the method: as §1

[5] = compound: Nc1ccn([C@@H]2O[C@H](CO)[C@@H](O)C2(F)F)c(=O)n1 [Gemcitabine] + Cc1nc(Nc2ncc(C(=O)Nc3c(C)cccc3Cl)s2)cc(N2CCN(CCO)CC2)n1 [Dasatinib] (partner 0.075 µM)
Summary of the method: as §1

[6] = compound: Nc1ccn([C@@H]2O[C@H](CO)[C@@H](O)C2(F)F)c(=O)n1 [Gemcitabine] + O=C(c1cc(Cc2n[nH]c(=O)c3ccccc23)ccc1F)N1CCN(C(=O)C2CC2)CC1 [Olaparib] (partner 8 µM)
Summary of the method: as §1

[7] = compound: Nc1ccn([C@@H]2O[C@H](CO)[C@@H](O)C2(F)F)c(=O)n1 [Gemcitabine] + CCNC(=O)c1noc(-c2cc(C(C)C)c(O)cc2O)c1-c1ccc(CN2CCOCC2)cc1 [Luminespib] (partner 0.01 µM)
Summary of the method: as §1

[8] = compound: Nc1ccn([C@@H]2O[C@H](CO)[C@@H](O)C2(F)F)c(=O)n1 [Gemcitabine] + Nc1ncn([C@H]2C[C@H](O)[C@@H](CO)O2)c(=O)n1 [Decitabine] (partner 2 µM)
Summary of the method: as §1

[9] = compound: Nc1ccn([C@@H]2O[C@H](CO)[C@@H](O)C2(F)F)c(=O)n1 [Gemcitabine] + COc1cccc2cc(-c3nc([C@H]4CC[C@H](C(=O)O)CC4)n4ncnc(N)c34)[nH]c12 [OSI-027] (partner 0.5 µM)
Summary of the method: as §1

[10] = compound: Nc1ccn([C@@H]2O[C@H](CO)[C@@H](O)C2(F)F)c(=O)n1 [Gemcitabine] + N=C(N)NC(=N)NCCc1ccccc1 [Phenformin] (partner 250 µM)
Summary of the method: as §1

[11] = compound: Nc1ccn([C@@H]2O[C@H](CO)[C@@H](O)C2(F)F)c(=O)n1 [Gemcitabine] + NC(=O)Nc1cc(-c2cccc(F)c2)sc1C(=O)N[C@H]1CCCNC1 [AZD7762] (partner 0.2 µM)
Summary of the method: as §1

[12] = compound: Nc1ccn([C@@H]2O[C@H](CO)[C@@H](O)C2(F)F)c(=O)n1 [Gemcitabine] + O=C(CCCCCCC(=O)Nc1ccccc1)NO [Vorinostat] (partner 1 µM)
Summary of the method: as §1

[13] = compound: Nc1ccn([C@@H]2O[C@H](CO)[C@@H](O)C2(F)F)c(=O)n1 [Gemcitabine] + CC(=O)Nc1cccc(-n2c(=O)n(C3CC3)c(=O)c3c(Nc4ccc(I)cc4F)n(C)c(=O)c(C)c32)c1 [Trametinib] (partner 0.02 µM)
Summary of the method: as §1

## NCI-H522
[1]; 0.001 µM
  relative viability: 1.12
[1]; 0.003162 µM
  relative viability: 0.812
[1]; 0.01 µM
  relative viability: 0.418
[1]; 0.03162 µM
  relative viability: 0.42
[1]; 0.1 µM
  relative viability: 0.388
[2]; first compound 0.001 µM
  relative viability: 0.555
[2]; first compound 0.003162 µM
  relative viability: 0.396
[2]; first compound 0.01 µM
  relative viability: 0.379
[2]; first compound 0.03162 µM
  relative viability: 0.354
[2]; first compound 0.1 µM
  relative viability: 0.312
[3]; first compound 0.001 µM
  relative viability: 0.954
[3]; first compound 0.003162 µM
  relative viability: 0.953
[3]; first compound 0.01 µM
  relative viability: 0.419
[3]; first compound 0.03162 µM
  relative viability: 0.367
[3]; first compound 0.1 µM
  relative viability: 0.316
[4]; first compound 0.001 µM
  relative viability: 0.885
[4]; first compound 0.003162 µM
  relative viability: 0.729
[4]; first compound 0.01 µM
  relative viability: 0.528
[4]; first compound 0.03162 µM
  relative viability: 0.394
[4]; first compound 0.1 µM
  relative viability: 0.364
[5]; first compound 0.001 µM
  relative viability: 0.987
[5]; first compound 0.003162 µM
  relative viability: 0.722
[5]; first compound 0.01 µM
  relative viability: 0.384
[5]; first compound 0.03162 µM
  relative viability: 0.42
[5]; first compound 0.1 µM
  relative viability: 0.36
[6]; first compound 0.001 µM
  relative viability: 0.639
[6]; first compound 0.003162 µM
  relative viability: 0.641
[6]; first compound 0.01 µM
  relative viability: 0.323
[6]; first compound 0.03162 µM
  relative viability: 0.306
[6]; first compound 0.1 µM
  relative viability: 0.3
[7]; first compound 0.001 µM
  relative viability: 1.14
[7]; first compound 0.003162 µM
  relative viability: 1.08
[7]; first compound 0.01 µM
  relative viability: 0.727
[7]; first compound 0.03162 µM
  relative viability: 0.392
[7]; first compound 0.1 µM
  relative viability: 0.368
[8]; first compound 0.001 µM
  relative viability: 0.653
[8]; first compound 0.003162 µM
  relative viability: 0.577
[8]; first compound 0.01 µM
  relative viability: 0.502
[8]; first compound 0.03162 µM
  relative viability: 0.352
[8]; first compound 0.1 µM
  relative viability: 0.342
[9]; first compound 0.001 µM
  relative viability: 0.653
[9]; first compound 0.003162 µM
  relative viability: 0.463
[9]; first compound 0.01 µM
  relative viability: 0.384
[9]; first compound 0.03162 µM
  relative viability: 1.12
[9]; first compound 0.1 µM
  relative viability: 0.393
[10]; first compound 0.001 µM
  relative viability: 0.653
[10]; first compound 0.003162 µM
  relative viability: 0.524
[10]; first compound 0.01 µM
  relative viability: 0.47
[10]; first compound 0.03162 µM
  relative viability: 0.396
[10]; first compound 0.1 µM
  relative viability: 0.384
[11]; first compound 0.001 µM
  relative viability: 0.709
[11]; first compound 0.003162 µM
  relative viability: 0.384
[11]; first compound 0.01 µM
  relative viability: 0.286
[11]; first compound 0.03162 µM
  relative viability: 0.323
[11]; first compound 0.1 µM
  relative viability: 0.204
[12]; first compound 0.001 µM
  relative viability: 0.829
[12]; first compound 0.003162 µM
  relative viability: 0.63
[12]; first compound 0.01 µM
  relative viability: 0.4
[12]; first compound 0.03162 µM
  relative viability: 0.331
[12]; first compound 0.1 µM
  relative viability: 0.294
[13]; first compound 0.001 µM
  relative viability: 0.705
[13]; first compound 0.003162 µM
  relative viability: 0.628
[13]; first compound 0.01 µM
  relative viability: 0.36
[13]; first compound 0.03162 µM
  relative viability: 0.347
[13]; first compound 0.1 µM
  relative viability: 0.319
